What follows are molecules tested against Factor D (Homo sapiens (Human), UniProt P00746) (assay: Factor D esterolytic assay (Z-Lys-SBzl substrate, DTNB, 405 nm)). Conditions: Z-Lys-SBzl 1.29 mM, pH 7.5, 10% DMSO, tested a minimum of three times, read-out: Measured Ki (IC50) Value for Compounds: IC50.
Assay type: biochemical
Summary of the method: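 Human Factor D ([…]) with 1.29 mM Z-Lys-SBzl in 100 mM HEPES, 500 mM NaCl, pH 7.5, 10% DMSO; substrate added immediately or after room-temperature preincubation. Released thiol reacted with DTNB, rate followed at 405 nm for 600 sec, 690 nm background subtracted. IC50 from percent inhibition versus uninhibited rate, n≥3.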

Chain of Factor D (P00746 26-253): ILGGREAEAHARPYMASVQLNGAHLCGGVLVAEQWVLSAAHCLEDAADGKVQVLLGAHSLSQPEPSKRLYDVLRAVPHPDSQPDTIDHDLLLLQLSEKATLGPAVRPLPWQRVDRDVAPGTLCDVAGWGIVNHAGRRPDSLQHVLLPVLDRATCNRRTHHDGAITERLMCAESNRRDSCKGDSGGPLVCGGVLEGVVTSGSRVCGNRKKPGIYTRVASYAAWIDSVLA

`Cc1cc2cc(COc3ccccc3CC(=O)O)cc(-c3cccc(CN)c3F)c2o1` [Compound 92b, 2-(2-((7-(3-(aminomethyl)-2-fluorophenyl)-2-methylbenzofuran-5-yl)methoxy)phenyl)acetic acid] and `CC(C)Cc1cc2cc(COc3ccccc3CC(=O)O)cc(-c3cccc(CN)c3F)c2o1` [Compound 200e, 2-(2-((7-(3-(aminomethyl)-2-fluorophenyl)-2-isobutylbenzofuran-5-yl)methoxy)phenyl)acetic acid] cannot be ordered by IC50: < 1000 nM for the first, < 1000 nM for the second.

`Cc1ccc(CC(=O)O)c(OCc2cc(-c3ccnc(CN)c3)c3occc3c2)c1` [Compound 271e, 2-(2-((7-(2-(aminomethyl)pyridin-4-yl)benzofuran-5-yl)methoxy)-4-methylphenyl)acetic acid] and `N#Cc1ccc(CC(=O)O)c(OCc2cc(-c3ccnc(CN)c3)c3occc3c2)c1` [Compound 433c, 2-(2-((7-(2-(aminomethyl)pyridin-4-yl)benzofuran-5-yl)methoxy)-4-cyanophenyl)acetic acid] cannot be ordered by IC50: < 1000 nM for the first, < 1000 nM for the second.

`COCc1cc2cc(COc3ccc(F)cc3CC(=O)O)cc(-c3cccc(CN)c3)c2o1` [Compound 462c, 2-(2-((7-(3-(aminomethyl)phenyl)-2-(methoxymethyl)benzofuran-5-yl)methoxy)-5-fluorophenyl)acetic acid] and `CC(O)c1cc2cc(COc3ccccc3CC(=O)O)cc(-c3cccc(CN)c3)c2o1` (stereo not drawn) [Compound 98e, 2-(2-((7-(3-(aminomethyl)phenyl)-2-(1-hydroxyethyl)benzofuran-5-yl)methoxy)phenyl)acetic acid] cannot be ordered by IC50: < 1000 nM for the first, < 1000 nM for the second.

`NCc1nccc(-c2c(F)c(COc3ccccc3CC(=O)O)cc3ccoc23)c1F` [Compound 531c, 2-(2-((7-(2-(aminomethyl)-3-fluoropyridin-4-yl)-6-fluorobenzofuran-5-yl)methoxy)phenyl)acetic acid] and `NCc1cccc(-c2cc(COc3ccccc3CC(=O)O)nc3ccoc23)c1F` [Compound 134b, 2-(2-((7-(3-(aminomethyl)-2-fluorophenyl)furo[3,2-b]pyridin-5-yl)methoxy)phenyl)acetic acid] cannot be ordered by IC50: < 1000 nM for the first, < 1000 nM for the second.

`NCc1cccc(-c2cc(COc3ccccc3CC(=O)O)c3nccn3c2)c1` [Compound 71e, 2-(2-((6-(3-(aminomethyl)phenyl)imidazo[1,2-a]pyridin-8-yl)methoxy)phenyl)acetic acid] and `Cc1oc2c(-c3cccc(CN)c3)cc(COc3ccccc3CC(=O)O)cc2c1-c1ccoc1` [Compound 459h, 2-(2-((7-(3-(aminomethyl)phenyl)-3-(furan-3-yl)-2-methylbenzofuran-5-yl)methoxy)phenyl)acetic acid] cannot be ordered by IC50: < 1000 nM for the first, < 1000 nM for the second.

`CC(C)n1ccc2c(-c3ccnc(CN)c3F)cc(COc3cc(F)ccc3CC(=O)O)cc21` [Compound 495d, 2-(2-((4-(2-(aminomethyl)-3-fluoropyridin-4-yl)-1-isopropyl-1H-indol-6-yl)methoxy)-4-fluorophenyl)acetic acid] and `CC(C)n1ccc2c(-c3cccc(CN)c3F)cc(COc3ccc(F)cc3CC(=O)O)cc21` [Compound 494b, 2-(2-((4-(3-(aminomethyl)-2-fluorophenyl)-1-isopropyl-1H-indol-6-yl)methoxy)-5-fluorophenyl)acetic acid] cannot be ordered by IC50: < 1000 nM for the first, < 1000 nM for the second.

`NC(CF)c1cccc(-c2cc(COc3ccccc3CC(=O)O)cc3ccoc23)c1F` (single isomer, unassigned; (+)) [Compound 402f, (+)-2-(2-((7-(3-(1-amino-2-fluoroethyl)-2-fluorophenyl)benzofuran-5-yl)methoxy)phenyl)acetic acid] and `NCc1coc2c(-c3cc(COc4ccccc4CC(=O)O)cc4ccoc34)cccc12` [Compound 38f, 2-(2-((3′-(aminomethyl)-[7,7′-bibenzofuran]-5-yl)methoxy)phenyl)acetic acid] cannot be ordered by IC50: < 1000 nM for the first, < 1000 nM for the second.

Compared with `Cc1cccc(CC(=O)O)c1NC(=O)c1nc(-c2cccc(CN)c2)nn2cccc12` [Compound 53d, 2-(2-(2-(3-(aminomethyl)phenyl)pyrrolo[2,1-f][1,2,4]triazine-4-carboxamido)-3-methylphenyl)acetic acid], `NCc1cccc(-c2nc(C(=O)Nc3ccccc3CC(=O)O)c3ccc(CN4CCCC4)n3n2)c1` [Compound 46g, 2-(2-(2-(3-(aminomethyl)phenyl)-7-(pyrrolidin-1-ylmethyl)pyrrolo[2,1-f][1,2,4]triazine-4-carboxamido)phenyl)acetic acid] is higher in IC50: < 1000 nM for the first, 1000 to 10000 nM for the second.

`CCN(CC)c1ccc(CC(=O)O)c(OCc2cc(-c3cccc(CN)c3)c3occc3c2)c1` [Compound 306f, 2-(2-((7-(3-(aminomethyl)phenyl)benzofuran-5-yl)methoxy)-4-(diethylamino)phenyl)acetic acid] and `CC(C)c1ccc(CC(=O)O)c(OCc2cc(-c3cccc(CN)c3)c3occc3c2)c1` [Compound 312b, 2-(2-((7-(3-(aminomethyl)phenyl)benzofuran-5-yl)methoxy)-4-isopropylphenyl)acetic acid] cannot be ordered by IC50: < 1000 nM for the first, < 1000 nM for the second.

`NCc1cccc(-c2cc(COc3cc(CO)ccc3CC(=O)O)cc3ccoc23)c1` [Compound 361c, 2-(2-((7-(3-(aminomethyl)phenyl)benzofuran-5-yl)methoxy)-4-(hydroxymethyl)phenyl)acetic acid] and `CC(=O)c1ccc(CC(=O)O)c(OCc2cc(-c3cccc(CN)c3)c3occc3c2)c1` [Compound 262c, 2-(4-acetyl-2-((7-(3-(aminomethyl)phenyl)benzofuran-5-yl)methoxy)phenyl)acetic acid] cannot be ordered by IC50: < 1000 nM for the first, < 1000 nM for the second.

`NCc1cc(-c2cc(COc3ccccc3CC(=O)O)cc3cc(F)oc23)ccn1` [Compound 301b, 2-(2-((7-(2-(aminomethyl)pyridin-4-yl)-2-fluorobenzofuran-5-yl)methoxy)phenyl)acetic acid] and `NCc1cc(-c2cc(COc3ccccc3CC(=O)O)cc3occc23)ccn1` [Compound 123d, 2-(2-((4-(2-(aminomethyl)pyridin-4-yl)benzofuran-6-yl)methoxy)phenyl)acetic acid] cannot be ordered by IC50: < 1000 nM for the first, < 1000 nM for the second.

`NCCc1cccc(-c2cc(COc3ccccc3CC(=O)O)cc3ccoc23)c1` [Compound 95c, 2-(2-((7-(3-(2-aminoethyl)phenyl)benzofuran-5-yl)methoxy)phenyl)acetic acid] and `C[C@H](N)c1cccc(-c2cc(COc3ccccc3CC(=O)O)cc3ccoc23)c1` [Compound 72c, (S)-2-(2-((7-(3-(1-aminoethyl)phenyl)benzofuran-5-yl)methoxy)phenyl)acetic acid] cannot be ordered by IC50: < 1000 nM for the first, < 1000 nM for the second.

`NCc1cccc(-c2cc(COc3ccc(N)cc3CC(=O)O)cc3ccoc23)c1` [Compound 209c, 2-(5-amino-2-((7-(3-(aminomethyl)phenyl)benzofuran-5-yl)methoxy)phenyl)acetic acid] and `NCc1cccc(-c2cc(COc3ccc(C4CC4)cc3CC(=O)O)cc3ccoc23)c1` [Compound 130g, 2-(2-((7-(3-(aminomethyl)phenyl)benzofuran-5-yl)methoxy)-5-cyclopropylphenyl)acetic acid] cannot be ordered by IC50: < 1000 nM for the first, < 1000 nM for the second.

`NCc1cccc(-c2cc(COc3cc(C4CCCC4)ccc3CC(=O)O)cc3ccoc23)c1` [Compound 395c, 2-(2-((7-(3-(aminomethyl)phenyl)benzofuran-5-yl)methoxy)-4-cyclopentylphenyl)acetic acid] and `Cc1ccc(CC(=O)O)c(OCc2cc(-c3cccc(CN)c3F)c3occc3c2)c1` [Compound 270c, 2-(2-((7-(3-(aminomethyl)-2-fluorophenyl)benzofuran-5-yl)methoxy)-4-methylphenyl)acetic acid] cannot be ordered by IC50: < 1000 nM for the first, < 1000 nM for the second.

`Cn1ncc2c(-c3cccc(CN)c3F)cc(COc3ccccc3CC(=O)O)cc21` [Compound 128g, 2-(2-((4-(3-(aminomethyl)-2-fluorophenyl)-1-methyl-1H-indazol-6-yl)methoxy)phenyl)acetic acid] and `NCc1cccc(-c2cc(COc3ccccc3CC(=O)O)nc3[nH]ccc23)c1F` [Compound 86b, 2-(2-((4-(3-(aminomethyl)-2-fluorophenyl)-1H-pyrrolo[2,3-b]pyridin-6-yl)methoxy)phenyl)acetic acid] cannot be ordered by IC50: < 1000 nM for the first, < 1000 nM for the second.

`Cc1ccc(CC(=O)O)c(OCc2cc(-c3cccc(CN)c3)c3occ(C(F)(F)F)c3c2)c1` [Compound 345b, 2-(2-((7-(3-(aminomethyl)phenyl)-3-(trifluoromethyl)benzofuran-5-yl)methoxy)-4-methylphenyl)acetic acid] and `NCc1cc(-c2cc(COc3c(F)cccc3CC(=O)O)cc3ccoc23)ccn1` [Compound 504c, 2-(2-((7-(2-(aminomethyl)pyridin-4-yl)benzofuran-5-yl)methoxy)-3-fluorophenyl)acetic acid] cannot be ordered by IC50: < 1000 nM for the first, < 1000 nM for the second.

`NCc1cc(-c2cc(COc3cc(-c4ccccc4)ccc3CC(=O)O)cc3ccoc23)ccn1` [Compound 393d, 2-(3-((7-(2-(aminomethyl)pyridin-4-yl)benzofuran-5-yl)methoxy)-[1,1′-biphenyl]-4-yl)acetic acid] and `N[C@H](CO)c1cc(-c2cc(COc3ccccc3CC(=O)O)cc3ccoc23)ccn1` [Compound 77c, (S)-2-(2-((7-(2-(1-amino-2-hydroxyethyl)pyridin-4-yl)benzofuran-5-yl)methoxy)phenyl)acetic acid] cannot be ordered by IC50: < 1000 nM for the first, < 1000 nM for the second.

First: Cc1ccc(S(=O)(=O)n2ccc3c(-c4cccc(CN)c4F)cc(COc4ccccc4CC(=O)O)cc32)cc1 [Compound 57c, 2-(2-((4-(3-(aminomethyl)-2-fluorophenyl)-1-tosyl-1H-indol-6-yl)methoxy)phenyl)acetic acid]
Second: NCc1cccc(-c2cc(COc3ccccc3Cc3nn[nH]n3)cc3ccoc23)c1 [Compound 311b, (3-(5-((2-((2H-tetrazol-5-yl)methyl)phenoxy)methyl)benzofuran-7-yl)phenyl)methanamine]
The IC50 of the first is lower: < 1000 nM for the first, > 10000 nM for the second.

From patent US11370774B2, “Substituted benzofuran, benzopyrrole, benzothiophene, and structurally related complement inhibitors” (BioCryst Pharmaceuticals, Inc., priority 2018, dated 2022)
